Measurements as given in the supplement of paper PMC11451515.

What was measured:
Details in all cases: 48 h
SEM cells [1] = test: cell viability relative to DMSO control; higher = less cytotoxic
Method in brief: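 Three leukemia lines were tested: NOMO1 and SEM at 500 cells/well and P12-Ichikawa at 1000 cells/well. Each was adapted for at least four passages in each medium and seeded in 5 μl in 1536-well plates, and library compounds in DMSO were pin-dosed from 47 μM to 0.79 nM in 11 threefold steps. After 48 h at 37°C, CellTiter-Glo One luminescence was read. Viability is a percentage relative to DMSO wells on each plate, with cell-free wells as background.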

NOMO1 = test: AUC of viability dose-response curve (% viability x log10 dose units); higher = less sensitive
Method in brief: (§1)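 Leukemia cells adapted to each medium were seeded at 500 or 1000 cells/well in 1536-well plates and dosed with library compounds in DMSO at 11 threefold doses from 47 μM to 0.79 nM for 48 h at 37°C. CellTiter-Glo One luminescence was normalised per plate to DMSO and cell-free wells, then fitted with a four-parameter log-logistic model over log10 doses. Area under the curve was taken from this fit by the trapezoidal rule, with curves above full viability scaled and curves failing quality control removed.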

P12-Ichikawa = test: as above
Method in brief: as §1

SEM cells [2] = test: as above
Method in brief: as §1

C[C@@H]1CC[C@H]2[C@@H](C)C(=O)O[C@@H]3O[C@@]4(C)CC[C@@H]1[C@]32OO4
cell viability [%], SEM cells [1]
Details | RPMI 5 mM glucose + 10% FBS | RPMI 5 mM glucose + 10% dialyzed FBS
0.000781 µM | 115 | 132
0.00234 µM | 144 | 113
0.00702 µM | 118 | 120
0.0211 µM | 134 | 118
0.0632 µM | 109 | 110
0.19 µM | 108 | 100
0.569 µM | 115 | 97.6
1.71 µM | 87.6 | 77.3
5.12 µM | 91.7 | 72.2
15.4 µM | 116 | 112
46.1 µM | 114 | 126

AUC of viability dose-response curve
Details | NOMO1 | P12-Ichikawa | SEM cells [2]
HPLM + 10% dialyzed FBS | 435 | 440 | 436
RPMI 5 mM glucose + 10% FBS | 419 | 412 | 424
RPMI 5 mM glucose + 10% dialyzed FBS | 451 | 416 | 418

CCCCCC[C@H]1C(=O)O[C@H](C)[C@H](NC(=O)c2cccc(NC=O)c2O)C(=O)O[C@@H](C)[C@@H]1OC(=O)CC(C)C
SEM cells [1], HPLM + 10% dialyzed FBS
Details | cell viability [%]
0.000781 µM | 90.7
0.00234 µM | 130
0.00702 µM | 111
0.0211 µM | 113
0.0632 µM | 115
0.19 µM | 123
0.569 µM | 137
1.71 µM | 111
5.12 µM | 110
15.4 µM | 112
46.1 µM | 101

AUC of viability dose-response curve
Details | NOMO1 | P12-Ichikawa | SEM cells [2]
HPLM + 10% dialyzed FBS | 444 | 417 | 476
RPMI 5 mM glucose + 10% FBS | 438 | 403 | 403
RPMI 5 mM glucose + 10% dialyzed FBS | 442 | 403 | 416

NC(=O)c1ccc2[nH]ccc2c1
AUC of viability dose-response curve
Details | NOMO1 | P12-Ichikawa | SEM cells [2]
HPLM + 10% dialyzed FBS | 440 | 440 | 444
RPMI 5 mM glucose + 10% FBS | 464 | 442 | 312
RPMI 5 mM glucose + 10% dialyzed FBS | 460 | 430 | 438

OC(CN1CCC(Cc2ccc(F)cc2)CC1)c1ccc(Cl)cc1 (stereo not given)
cell viability [%], SEM cells [1]
Details | HPLM + 10% dialyzed FBS | RPMI 5 mM glucose + 10% dialyzed FBS
0.000781 µM | 106 | 116
0.00234 µM | 118 | 125
0.00702 µM | 108 | 115
0.0211 µM | 115 | 129
0.0632 µM | 116 | 126
0.19 µM | 118 | 139
0.569 µM | 117 | 140
1.71 µM | 122 | 136
5.12 µM | 124 | 125
15.4 µM | 130 | 128
46.1 µM | 129 | 136

AUC of viability dose-response curve
Details | NOMO1 | P12-Ichikawa | SEM cells [2]
HPLM + 10% dialyzed FBS | 456 | 449 | 440
RPMI 5 mM glucose + 10% FBS | 455 | 451 | 451
RPMI 5 mM glucose + 10% dialyzed FBS | 448 | 451 | 461

C=CC[C@@H]1/C=C(\C)C[C@H](C)C[C@H](OC)[C@H]2O[C@@](O)(C(=O)C(=O)N3CCCC[C@H]3C(=O)O[C@H](/C(C)=C/[C@@H]3CC[C@@H](O)[C@H](OC)C3)[C@H](C)[C@@H](O)CC1=O)[C@H](C)C[C@@H]2OC
SEM cells [1], HPLM + 10% dialyzed FBS
Details | cell viability [%]
0.000781 µM | 102
0.00234 µM | 125
0.00702 µM | 131
0.0211 µM | 123
0.0632 µM | 115
0.19 µM | 111
0.569 µM | 107
1.71 µM | 74.9
5.12 µM | 60.9
15.4 µM | 30.8
46.1 µM | 100

AUC of viability dose-response curve
Details | NOMO1 | P12-Ichikawa | SEM cells [2]
HPLM + 10% dialyzed FBS | 412 | 466 | 400
RPMI 5 mM glucose + 10% FBS | 453 | 448 | 376
RPMI 5 mM glucose + 10% dialyzed FBS | 436 | 449 | 362

CN1CCN(CC1)C2=C3OCN(C)N4\C=C(C(O)=O)/C(=O)C(=C34)C=C2F
SEM cells [1], HPLM + 10% dialyzed FBS
Details | cell viability [%]
0.000781 µM | 66.2
0.00234 µM | 116
0.00702 µM | 120
0.0211 µM | 124
0.0632 µM | 115
0.19 µM | 115
0.569 µM | 117
1.71 µM | 116
5.12 µM | 102
15.4 µM | 105
46.1 µM | 82

AUC of viability dose-response curve
Details | NOMO1 | P12-Ichikawa | SEM cells [2]
HPLM + 10% dialyzed FBS | 454 | 459 | 471
RPMI 5 mM glucose + 10% FBS | 450 | 459 | 466
RPMI 5 mM glucose + 10% dialyzed FBS | 465 | 465 | 434

CC1COC2(CCN(CC2)C/3=N/C(=O)C4=CC(=CC(=C4S3)[N+]([O-])=O)C(F)(F)F)O1 (stereo not given)
SEM cells [1], HPLM + 10% dialyzed FBS
Details | cell viability [%]
0.000781 µM | 97.9
0.00234 µM | 105
0.00702 µM | 122
0.0211 µM | 109
0.0632 µM | 93.9
0.19 µM | 126
0.569 µM | 133
1.71 µM | 122
5.12 µM | 117
15.4 µM | 82.3
46.1 µM | 78.3

AUC of viability dose-response curve
Details | NOMO1 | P12-Ichikawa | SEM cells [2]
HPLM + 10% dialyzed FBS | 471 | 448 | 456
RPMI 5 mM glucose + 10% FBS | 473 | 442 | 441
RPMI 5 mM glucose + 10% dialyzed FBS | 467 | 434 | 446

CN1CCN(c2ccc(C(=O)Nc3n[nH]c4ccc(Cc5cc(F)cc(F)c5)cc34)c(NC3CCOCC3)c2)CC1
AUC of viability dose-response curve
Details | HPLM + 10% dialyzed FBS | RPMI 5 mM glucose + 10% FBS | RPMI 5 mM glucose + 10% dialyzed FBS
P12-Ichikawa | 440 | 440 | 404
SEM cells [2] | 341 | 352 | 354

C[C@@H]1[C@H](O)[C@@H](C)C=CC=CCCC=CC=CC=CC=C[C@H](O[C@H]2O[C@@H](C)[C@H](O)[C@@H](N)[C@H]2O)CC2O[C@](O)(C[C@@H](O)[C@H](O)CC[C@@H](O)C[C@@H](O)C[C@@H](O)CC(=O)O[C@H]1C)C[C@H](O)[C@H]2C(=O)O
AUC of viability dose-response curve
Details | NOMO1 | P12-Ichikawa | SEM cells [2]
HPLM + 10% dialyzed FBS | 458 | 459 | 451
RPMI 5 mM glucose + 10% FBS | 432 | 429 | 448
RPMI 5 mM glucose + 10% dialyzed FBS | 432 | 456 | 447

CCC(=O)NCC[C@@H]1CCc2ccc3c(c21)CCO3
AUC of viability dose-response curve
Details | NOMO1 | P12-Ichikawa | SEM cells [2]
HPLM + 10% dialyzed FBS | 444 | 444 | 430
RPMI 5 mM glucose + 10% FBS | 446 | 455 | 431
RPMI 5 mM glucose + 10% dialyzed FBS | 449 | 459 | 435
